# Like-named read-outs stand apart in the source and are kept apart here.
# Columns and labels:
# LK lymphoma cells [1] = assay: 3H-Thymidine Incorporation, LK; type: cell-based, mouse
# Source text: (§1) 2) The ^3 H-Thymidine Incorporation Test as described by Ju, S. T., Dorf, M. E. J. Immunol. 1985, 134, 3722. This test was used for monitoring cellular proliferation by monitoring DNA synthesis. The results are expressed as percent ^3 H-thymidine incorporation relative to an untreated control:
# (§2) [% ^3 H-thymidine incorporation]=[cpm agent treated cells]/[cpm
# (§3) where cpm=counts per minute. Treatments resulting in [% ^3 H-thymidine incorporation] of <50% are considered active.
# (§4) The ^3 H-thymidine incorporation assay therefore measures the amount of DNA synthesis when the cells are in the "S" phase of the cell cycle, and is used to assess cell proliferation. Cancer cells, which have a very rapid cell cycle turnover, normally incorporate large amounts of tritium (^3 H) unless inhibited by an exogenous agent. […] While the trypan blue dye exclusion test is an indicator of cell death, the ^3 H-thymidine incorporation test indicates a cytostatic status (not necessarily cytotoxic) of the cell. As previously noted, this latter test was the primary screen used to guide the isolation to the active agent.
# (§5) With the preferred purified active agent in hand, ^3 H-thymidine incorporation and trypan blue assays were initially performed at different dosages using LK and BW lymphoma ceil lines in order to confirm the activity of the preferred purified active agent, and to bracket the active concentration range for the preferred purified active agent. With a molecular weight of 328, a 1 μg/mL solution corresponds to 3 μM concentration. In addition, the time course of cell viability in the trypan blue assay was also monitored in order to best optimize subsequent assays to ensure that the cells were still viable at the time of measurement, and to ensure a nontoxic response of the cells to the agent. Toxicity of the agent would have been observed as cell death within 2 hours. The trypan blue assays (Table 7), run at 30 μM and 3 μM of purified agent (10 and 1 μg/mL, respectively), indicated excellent cell viability after 24 hours, though with a significant drop in viability after 48 hours at a 30 μM dose of preferred purified active agent. Consequently the results of the in vitro assays employing purified agent were all recorded after 24 hours. In the ^3 H-thymidine incorporation assay (Table 8), dosages ranging from 0.1 to 250 μg/mL were examined.
# [2] = test system: BW (BW5147) lymphoma cells; assay: Trypan Blue cell viability, BW (BW5147); type: cell-based; details: Mus musculus, read-out: Trypan Blue Cell Viability (%)
# Source text: (§6) 1) The Trypan Blue Dye Exclusion Test for monitoring ceil viability as described by Phillips, H. J., in Tissue Culture Methods and Applications; Kruse, P. F., Jr., Patterson, M. K., Eds.; Academic Press, New York, 1973, 406, and by Wu, Y. W., Chik, L. L., Knazek, R. A. Cancer Research 1989, 49, 3754. The results of this assay are expressed as a percentage of viable cells:
# (§7) [% viable cells]=[no. of alive cells]/[total no. of cells]×100
# (§8) where the total no. cells=dead cells+alive cells. The results are compared directly with an untreated control, which typically show a three-to-four-fold increase for cancer cells, and a two-fold increase for normal cells. Treatments resulting in [% viable cells] of <30% are considered cytotoxic. Therefore, the trypan blue dye exclusion test was used to assess the number of dead and alive cells using various cell lines upon treatment with the crude and purified agent. This test provides a simple clue to the acute or late onset of a cytotoxic response. Readings for this and all other in vitro assays were taken 48 hours after treatment with the unpurified agent, and also […] after treatment for the purified agent. Thus, the trypan blue dye exclusion assay functions to confirm whether or not the cells were viable at the time readings were taken for other bioassays.
# as §5
# BW lymphoma cells = assay: 35S-Methionine Incorporation (protein synthesis), BW; type: cell-based; details: Mus musculus; for activity at 1 µg/mL: 1 μg/mL; for activity at 10 µg/mL: 10 μg/mL
# Source text: 3) ^35 S-Methionine Incorporation Test as described by Sorenson, C. M., Barry, M. A., Eastman, A. J. Natl. Canc. Inst. 1990, 82, 749. The results are expressed as percent ^35 S-methionine incorporation relative to an untreated control:
# [% ^35 S-methionine incorporation]=[cpm agent treated cells]/[cpm
# where cpm=counts per minute. Treatments resulting in [% ^35 S-methionine incorporation] of <50% are considered active.
# The ^35 S-methionine incorporation test therefore measures protein synthesis. Activity in this bioassay could arise from inhibition of transcription and/or translation.
# In this test, BW and LK lymphoma cells were treated with the preferred purified active agent at 1 μg/mL and 10 μg/mL for comparison with an untreated control. The treated cells were split into two groups, one of which was thoroughly washed to remove the preferred purified active agent prior to incubation with ^35 S-methionine.
# P815 cells (mastocytoma) = assay: Trypan Blue cell viability, P815; type: cell-based; details: Mus musculus, P815, read-out: Trypan Blue Cell Viability (%)
# Source text: as §6, §7, §8
# LK lymphoma cells [3] = assay: Trypan Blue cell viability, LK; type: cell-based; details: Mus musculus, read-out: Trypan Blue Cell Viability (%)
# Source text: as §6, §7, §8, §5
# [4] = test system: EL-4 cells (type T lymphoma); assay: 3H-Thymidine Incorporation, EL-4; type: cell-based; details: Mus musculus, read-out: 3H-Thymidine Incorporation (DNA Synthesis) Inhibition (%)
# Source text: as §1, §2, §3, §4
structure (smiles),measurement,setting,value
"CC1=C2C(=O)C=C(CO)[C@@H]2[C@H]2OC(=O)[C@@H](C)[C@@H]2[C@@H](O)C1 [11β,13-dihydrolactucin, 3,6-dimethyl-4-hydroxy-9-hydroxymethyl-3,3a,4,5,9a,9b-hexahydroazuleno[4,5-b]furan-2,7-dione]","ED50, 3H-thymidine incorporation",LK lymphoma cells [1],micromolar range
same,inhibition at 0.1 µg/mL,"LK lymphoma cells [1]; Mus musculus, 3 h, 0.1 μg/mL, read-out: 3H-Thymidine Incorporation (DNA Synthesis) Inhibition (%)",95%
same,inhibition at 1 µg/mL,"LK lymphoma cells [1]; Mus musculus, 3 h, 1 μg/mL, read-out: 3H-Thymidine Incorporation (DNA Synthesis) Inhibition (%)",75%
same,inhibition at 10 µg/mL,"LK lymphoma cells [1]; Mus musculus, 3 h, 10 μg/mL, read-out: 3H-Thymidine Incorporation (DNA Synthesis) Inhibition (%)",5%
same,inhibition at 25 µg/mL,"LK lymphoma cells [1]; Mus musculus, 3 h, 25 μg/mL, read-out: 3H-Thymidine Incorporation (DNA Synthesis) Inhibition (%)",2%
same,inhibition at 100 µg/mL,"LK lymphoma cells [1]; Mus musculus, 3 h, 100 μg/mL, read-out: 3H-Thymidine Incorporation (DNA Synthesis) Inhibition (%)",2%
same,inhibition at 250 µg/mL,"LK lymphoma cells [1]; Mus musculus, 3 h, 250 μg/mL, read-out: 3H-Thymidine Incorporation (DNA Synthesis) Inhibition (%)",2%
same,viability at 1 µg/mL,[2]; 2 h,100%
same,viability at 10 µg/mL,[2]; 2 h,100%
same,viability at 1 µg/mL,[2]; 5 h,100%
same,viability at 10 µg/mL,[2]; 5 h,100%
same,viability at 1 µg/mL,[2]; 12 h,100%
same,viability at 10 µg/mL,[2]; 12 h,100%
same,viability at 1 µg/mL,[2]; 24 h,100%
same,viability at 10 µg/mL,[2]; 24 h,85%
same,viability at 1 µg/mL,[2]; 36 h,90%
same,viability at 10 µg/mL,[2]; 36 h,72%
same,viability at 1 µg/mL,[2]; 48 h,90%
same,viability at 10 µg/mL,[2]; 48 h,60%
same,viability at 0.1 µg/mL,[2],100%
same,viability at 0.5 µg/mL,[2],100%
same,viability at 1 µg/mL,[2],100%
same,viability at 10 µg/mL,[2],80%
same,activity at 1 µg/mL,BW lymphoma cells; BW (washed),100%
same,activity at 10 µg/mL,BW lymphoma cells; BW (washed),100%
same,activity at 1 µg/mL,"BW lymphoma cells; BW, unwashed",10%
same,activity at 10 µg/mL,"BW lymphoma cells; BW, unwashed",2%
same,viability at 0.1 µg/mL,P815 cells (mastocytoma),100%
same,viability at 0.5 µg/mL,P815 cells (mastocytoma),100%
same,viability at 1 µg/mL,P815 cells (mastocytoma),100%
same,viability at 10 µg/mL,P815 cells (mastocytoma),80%
same,viability at 1 µg/mL,LK lymphoma cells [3]; 2 h,100%
same,viability at 10 µg/mL,LK lymphoma cells [3]; 2 h,100%
same,viability at 1 µg/mL,LK lymphoma cells [3]; 5 h,100%
same,viability at 10 µg/mL,LK lymphoma cells [3]; 5 h,100%
same,viability at 1 µg/mL,LK lymphoma cells [3]; 12 h,100%
same,viability at 10 µg/mL,LK lymphoma cells [3]; 12 h,100%
same,viability at 1 µg/mL,LK lymphoma cells [3]; 24 h,100%
same,viability at 10 µg/mL,LK lymphoma cells [3]; 24 h,85%
same,viability at 1 µg/mL,LK lymphoma cells [3]; 36 h,90%
same,viability at 10 µg/mL,LK lymphoma cells [3]; 36 h,72%
same,viability at 1 µg/mL,LK lymphoma cells [3]; 48 h,90%
same,viability at 10 µg/mL,LK lymphoma cells [3]; 48 h,60%
same,inhibition at 0.1 µg/mL,"[4]; EL4, 0.1 μg/mL",100%
same,inhibition at 0.5 µg/mL,"[4]; EL4, 0.5 μg/mL",100%
same,inhibition at 1 µg/mL,"[4]; EL4, 1.0 μg/mL",78%
same,inhibition at 10 µg/mL,"[4]; EL4, 10 μg/mL",38%

# Reference: patent US5663196A, “Methods for treating neoplastic disorders” (Boston University, priority 1993, dated 1997)
